Reference: ChEMBL document CHEMBL1130995, “Anti-AIDS agents. 32. Synthesis and anti-HIV activity of betulin derivatives” (Bioorg Med Chem Lett, 1998)

Columns and labels:
H9 [1] = experiment: Compound was evaluated for anti-HIV activity in H9 lymphocytes; type: functional, cell-based; details: Homo sapiens
H9 [2] = experiment: Compound was evaluated for cytotoxicity in H9 lymphocytes; type: functional, cell-based; details: Homo sapiens

SMILES | EC50 (H9 [1]) | IC50 (H9 [2])
C=C(C)[C@@H]1CC[C@]2(COC(=O)CC(C)(C)CC(=O)O)CC[C@]3(C)[C@H](CC[C@@H]4[C@@]5(C)CCC(=O)C(C)(C)[C@@H]5CC[C@]43C)[C@@H]12 | 10 µM | 29.2 µM
CC(C)[C@@H]1CC[C@]2(COC(=O)CC(C)(C)CC(=O)O)CC[C@]3(C)[C@H](CC[C@@H]4[C@@]5(C)CC[C@H](OC(=O)CC(C)(C)CC(=O)O)C(C)(C)[C@@H]5CC[C@]43C)[C@@H]12 | 0.0047 µM | 10.6 µM
C=C(C)[C@@H]1CC[C@]2(COC(=O)CC3(CC(=O)O)CCCC3)CC[C@]3(C)[C@H](CC[C@@H]4[C@@]5(C)CC[C@H](OC(=O)CC6(CC(=O)O)CCCC6)C(C)(C)[C@@H]5CC[C@]43C)[C@@H]12 | 0.077 µM | 20.5 µM
CCC(C)(CC(=O)O)CC(=O)OC[C@]12CC[C@@H](C(C)C)[C@@H]1[C@H]1CC[C@@H]3[C@@]4(C)CC[C@H](OC(=O)CC(C)(CC)CC(=O)O)C(C)(C)[C@@H]4CC[C@@]3(C)[C@]1(C)CC2 (some centres undefined) | 0.075 µM | 18.7 µM
C=C(C)[C@@H]1CC[C@]2(COC(=O)CC(C)(C)CC(=O)O)CC[C@]3(C)[C@H](CC[C@@H]4[C@@]5(C)CC=CC(C)(C)[C@@H]5CC[C@]43C)[C@@H]12 | 5.4 µM | 28.3 µM
C=C(C)[C@@H]1CC[C@]2(COC(=O)CC(C)(C)CC(=O)O)CC[C@]3(C)[C@H](CC[C@@H]4[C@@]5(C)CC[C@H](O)C(C)(C)[C@@H]5CC[C@]43C)[C@@H]12 | 3.6 µM | 28.2 µM
C=C(C)[C@@H]1CC[C@]2(C(=O)O)CC[C@]3(C)[C@H](CC[C@@H]4[C@@]5(C)CC[C@H](OC(=O)CC(C)(C)CC(=O)O)C(C)(C)[C@@H]5CC[C@]43C)[C@@H]12 | 0.0023 µM | –
C=C(C)[C@@H]1CC[C@]2(COC(=O)CC(C)(CC)CC(=O)O)CC[C@]3(C)[C@H](CC[C@@H]4[C@@]5(C)CC[C@H](OC(=O)CC(C)(CC)CC(=O)O)C(C)(C)[C@@H]5CC[C@]43C)[C@@H]12 (some centres undefined) | 0.0053 µM | 18.4 µM
C=C(C)[C@@H]1CC[C@]2(CO)CC[C@]3(C)[C@H](CC[C@@H]4[C@@]5(C)CC=CC(C)(C)[C@@H]5CC[C@]43C)[C@@H]12 | 11.9 µM | 31.9 µM
C=C(C)[C@@H]1CC[C@]2(COC(=O)CC(C)(C)CC(=O)O)CC[C@]3(C)[C@H](CC[C@@H]4[C@@]5(C)CC[C@H](OC(=O)CC(C)(C)CC(=O)O)C(C)(C)[C@@H]5CC[C@]43C)[C@@H]12 | 0.00066 µM | 14.2 µM
CC(C)[C@@H]1CC[C@]2(COC(=O)CC3(CC(=O)O)CCCC3)CC[C@]3(C)[C@H](CC[C@@H]4[C@@]5(C)CC[C@H](OC(=O)CC6(CC(=O)O)CCCC6)C(C)(C)[C@@H]5CC[C@]43C)[C@@H]12 | 0.58 µM | 21.6 µM
C=C(C)[C@@H]1CC[C@]2(CO)CC[C@]3(C)[C@H](CC[C@@H]4[C@@]5(C)CC[C@H](O)C(C)(C)[C@@H]5CC[C@]43C)[C@@H]12 [BETULIN] | 23 µM | 43.7 µM
Cc1cn([C@H]2C[C@H](N=[N+]=[N-])[C@@H](CO)O2)c(=O)[nH]c1=O [ZIDOVUDINE] | 0.015 µM | –
